Laboratory results reported in patent US9115151B2, “Substituted 2,10-dihydro-9-oxa-1,2,4A-triazaphenanthren-3-ones and uses thereof” (AbbVie Inc., priority 2012, dated 2015).

Experiments:
PKCθ = target: T1, PKCθ (Homo sapiens, UniProt Q04759); test: In vitro enzyme assay (time-resolved fluorescence kinase assay), PKCθ, 100 μM ATP; format: biochemical
T1 construct: His6; purchased Millipore; host or cells: baculovirus in Sf21 cells
In short: (§1)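 Read-out was time-resolved fluorescence, corrected for a minus-enzyme blank and converted to percent activity relative to enzyme without drug. They were stopped with EDTA.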

PKCα = target: T2, PKCα (Homo sapiens, UniProt P17252); test: In vitro enzyme assay (time-resolved fluorescence kinase assay), PKCα, 100 μM ATP; format: biochemical; conditions: 100 μM ATP; read-out: PKCα enzyme IC50
T2 construct: His6; purchased Millipore; host or cells: baculovirus in Sf21 cells
In short: as §1

[1] = tested on: CD3/CD28 induced IL-2 in human T-Blasts; test: T-Blasts CD3/CD28 induced IL-2 assay; format: cell-based; conditions: read-out: CD3/CD28-stimulated IL2 in T-blasts EC50
In short: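 IL-2 in supernatants read after 24 h 37° C stimulation of human PHA T-blasts (2×10^5/well) with anti-CD3/anti-CD28 at 5 μg/mL final. Duplicate eight-point, 1/3-step compound series added 30 min before stimulus; residual cells checked by MTT for toxicity.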

T1 sequence (Q04759 whole entry): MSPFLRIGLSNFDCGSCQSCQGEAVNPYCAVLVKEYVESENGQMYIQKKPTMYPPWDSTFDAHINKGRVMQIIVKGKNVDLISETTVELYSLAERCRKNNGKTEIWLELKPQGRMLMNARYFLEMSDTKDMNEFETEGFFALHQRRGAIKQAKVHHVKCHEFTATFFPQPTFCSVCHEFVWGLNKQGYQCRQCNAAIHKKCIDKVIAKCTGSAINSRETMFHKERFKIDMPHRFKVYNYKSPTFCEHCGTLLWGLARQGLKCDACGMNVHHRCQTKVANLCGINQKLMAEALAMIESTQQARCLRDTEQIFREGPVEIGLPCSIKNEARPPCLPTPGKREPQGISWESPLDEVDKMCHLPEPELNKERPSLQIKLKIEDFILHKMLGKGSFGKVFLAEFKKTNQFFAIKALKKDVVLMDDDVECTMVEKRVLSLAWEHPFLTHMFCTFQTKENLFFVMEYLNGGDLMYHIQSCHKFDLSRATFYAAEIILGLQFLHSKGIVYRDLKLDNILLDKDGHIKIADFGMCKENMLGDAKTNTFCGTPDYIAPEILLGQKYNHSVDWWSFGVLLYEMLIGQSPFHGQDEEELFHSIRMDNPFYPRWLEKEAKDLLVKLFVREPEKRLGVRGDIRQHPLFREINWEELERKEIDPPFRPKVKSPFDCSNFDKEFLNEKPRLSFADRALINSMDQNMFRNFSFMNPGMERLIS

Row | SMILES | IC50 (PKCθ) [µM] | IC50 (PKCα) [µM] | EC50 [1] [µM]
1 | C[C@@H]1C(=O)NN=C2COc3cc(-c4ccccc4F)c([C@@H](C)C4(C)CN(CCO)C4)cc3N21 [Example 141] | < 0.25 | 0.25 to 1 | < 0.25
2 | CC1C(=O)NN=C2COc3cc(-c4ccco4)c(N(C)C4(C)CN(C)C4)cc3N21 (stereo not drawn) [Example 171] | < 0.25 | 1 to 10 | < 0.25
3 | CC1C(=O)NN=C2COc3cc(-c4ccc(Cl)c(Cl)c4)c(NC4CNC4)cc3N21 (racemic) [Example 25] | < 0.25 | 1 to 10 | < 0.25
4 | CC1C(=O)NN=C2COc3cc(-c4ccc5ccccc5c4)c(NC4CNC4)cc3N21 (racemic) [Example 36] | < 0.25 | 1 to 10 | < 0.25
5 | CC1C(=O)NN=C2COc3cc(-c4ccccc4)c(N(C)C4(C)CNC4)cc3N21 (stereo not drawn) [Example 90] | < 0.25 | < 0.25 | < 0.25
6 | CC1C(=O)NN=C2COc3ccc(C(C)C4(C)CNC4)cc3N21 (stereo not drawn) [Example 129, 1-Methyl-9-(1-(3-methylazetidin-3-yl)ethyl)-3,5-dihydrobenzo[5,6][1,4]oxazino[3,4-c][1,2,4]triazin-2(1H)-one trifluoroacetic acid] | < 0.25 | 1 to 10 | 0.25 to 1
7 | C[C@H]1C(=O)NN=C2COc3cc(-c4ccccc4F)c(N(C)[C@]4(C)CCN(C)C4)cc3N21 (single isomer, unassigned) [Example 198-2] | < 0.25 | 1 to 10 | 1 to 10
8 | CC1C(=O)NN=C2COc3cc(F)c(C4CCNCC4)cc3N21 (stereo not drawn) [Example 72] | 0.25 to 1 | 1 to 10 | 1 to 10
9 | C[C@@H]1C(=O)NN=C2COc3cc(-c4ccc(Cl)cc4)c(NC4CNC4)cc3N21 [Example 7] | < 0.25 | 1 to 10 | < 0.25
10 | CC1C(=O)NN=C2COc3cc(-c4ccc(OC(F)(F)F)cc4)c(NC4CNC4)cc3N21 (racemic) [Example 21] | 0.25 to 1 | 1 to 10 | < 0.25
11 | COCCN1CC(C)([C@H](C)c2cc3c(cc2-c2ccccc2F)OCC2=NNC(=O)[C@@H](C)N23)C1 [Example 145] | < 0.25 | 1 to 10 | 0.25 to 1
12 | CC1C(=O)NN=C2COc3cc(-c4ccccc4)c(C4CCNCC4)cc3N21 (stereo not drawn) [Example 119, 1-Methyl-8-phenyl-9-(piperidin-4-yl)-3,5-dihydrobenzo[5,6][1,4]oxazino[3,4-c][1,2,4]triazin-2(1H)-one trifluoroacetic acid] | < 0.25 | 1 to 10 | < 0.25
13 | C[C@@H]1C(=O)NN=C2COc3cc(-c4c(F)cccc4F)c(C4CCNCC4)cc3N21 [Example 213] | < 0.25 | 1 to 10 | < 0.25
14 | C[C@@H]1C(=O)NN=C2COc3cc(-c4ccccc4F)c([C@@H](C)C4(C)CN(CC5CCOCC5)C4)cc3N21 [Example 142] | < 0.25 | 1 to 10 | 0.25 to 1
15 | C[C@@H]1C(=O)NN=C2COc3cc4c(cc3N21)N([C@H]1CCNC1)CC4 [Example 154, (R)-1-Methyl-10-(S)-pyrrolidin-3-yl-3,5,9,10-tetrahydro-8H-6-oxa-3,4,10,11b-tetraaza-cyclopenta[b]phenanthren-2-one hydrochloric acid] | < 0.25 | 1 to 10 | 0.25 to 1
16 | CC1C(=O)NN=C2COc3cc(-c4ccccc4)c(N(C)C4(C)CN(C5COC5)C4)cc3N21 (stereo not drawn) [Example 196] | < 0.25 | 1 to 10 | 1 to 10
17 | C[C@@H]1C(=O)NN=C2COc3cc(-c4ccc(F)cc4F)c([C@@H]4CCN(C)C[C@@H]4C)cc3N21 [Example 238] | < 0.25 | < 0.25 | < 0.25
18 | Cc1cc(F)ccc1-c1cc2c(cc1NC1CNC1)N1C(=NNC(=O)C1C)CO2 (racemic) [Example 13] | < 0.25 | 1 to 10 | < 0.25
19 | C[C@@H]1CNCCN1c1cc2c(cc1-c1ccccc1F)OCC1=NNC(=O)[C@@H](C)N12 [Example 223] | < 0.25 | 0.25 to 1 | < 0.25
20 | C[C@@H]1C(=O)NN=C2COc3cc(-c4ccc(OC(F)(F)F)cc4)c(NC4CNC4)cc3N21 [Example 11] | 0.25 to 1 | 1 to 10 | < 0.25
21 | CC1C(=O)NN=C2COc3c(cc(NC4CNC4)c(F)c3F)N21 (stereo not drawn) [Example 114, 9-(Azetidin-3-ylamino)-7,8-difluoro-1-methyl-3,5-dihydrobenzo[5,6][1,4]oxazino[3,4-c][1,2,4]triazin-2(1H)-one trifluoroacetic acid] | < 0.25 | 1 to 10 | < 0.25
22 | Cc1cc(F)cc(-c2cc3c(cc2NC2CNC2)N2C(=NNC(=O)C2C)CO3)c1 (racemic) [Example 33] | < 0.25 | 1 to 10 | 0.25 to 1
23 | CC1C(=O)NN=C2COc3cc(-c4cccc(COC(C)(C)C)c4)c(NC4CNC4)cc3N21 (racemic) [Example 40] | 0.25 to 1 | 1 to 10 | 0.25 to 1
24 | CC1C(=O)NN=C2COc3cc(-c4ccccc4C(F)(F)F)c(NC4CNC4)cc3N21 (racemic) [Example 28] | < 0.25 | 1 to 10 | < 0.25
25 | CC1C(=O)NN=C2COc3cc(C4CC4)c(C4CCNCC4)cc3N21 (stereo not drawn) [Example 77, 7-Cyclopropyl-4-methyl-6-piperidin-4-yl-2,10-dihydro-9-oxa-1,2,4a-triaza-phenanthren-3-one trifluoroacetic acid] | < 0.25 | 1 to 10 | 0.25 to 1
26 | C[C@@H]1C(=O)NN=C2COc3cc(-c4ccccc4F)c(N4[C@@H]5CC[C@H]4CNC5)cc3N21 [Example 228] | < 0.25 | 0.25 to 1 | 0.25 to 1
27 | CC1C(=O)NN=C2COc3cc(OCc4ccccc4)c(NC4CNC4)cc3N21 (stereo not drawn) [Example 127, 6-(Azetidin-3-ylamino)-7-benzyloxy-4-methyl-2,10-dihydro-9-oxa-1,2,4a-triaza-phenanthren-3-one trifluoroacetic acid] | < 0.25 | 1 to 10 | 0.25 to 1

The remaining lines, values ahead:

Row | IC50 (PKCθ) [µM] | IC50 (PKCα) [µM] | EC50 [1] [µM] | SMILES
28 | < 0.25 | 1 to 10 | < 0.25 | COc1cccc(-c2cc3c(cc2NC2CNC2)N2C(=NNC(=O)C2C)CO3)c1 (racemic) [Example 20]
29 | < 0.25 | 0.25 to 1 | 0.25 to 1 | CC[C@@H]1CNCCN1c1cc2c(cc1-c1ccccc1F)OCC1=NNC(=O)[C@@H](C)N12 [Example 226]
30 | < 0.25 | 1 to 10 | < 0.25 | C[C@@H]1C(=O)NN=C2COc3cc(-c4cccc5ccccc45)c(NC4CNC4)cc3N21 [Example 10]
31 | < 0.25 | 1 to 10 | 0.25 to 1 | Cc1cc2c(cc1NC1CNC1)N1C(=NNC(=O)[C@H]1C)CO2 (single isomer, unassigned) [Example 54-1, trifluoroacetic acid]
32 | < 0.25 | 0.25 to 1 | < 0.25 | C[C@@H]1C(=O)NN=C2COc3cc(-c4ccc(F)cc4F)c(N(C)C4(C)CN(C)C4)cc3N21 [Example 178]
33 | < 0.25 | 1 to 10 | < 0.25 | CC1C(=O)NN=C2COc3ccc(OC4(C)CNC4)cc3N21 (stereo not drawn) [Example 69, 4-Methyl-6-(3-methyl-azetidin-3-yloxy)-2,10-dihydro-9-oxa-1,2,4a-triaza-phenanthren-3-one trifluoroacetic acid]
34 | < 0.25 | 1 to 10 | 0.25 to 1 | C[C@@H]1CNCC[C@@H]1c1cc2c(cc1-c1ccccc1CO)OCC1=NNC(=O)[C@@H](C)N12 [Example 204]
35 | < 0.25 | 0.25 to 1 | < 0.25 | CC1C(=O)NN=C2COc3cc(-c4ccccc4)c(N(C)C4(C)CN(C5CCOCC5)C4)cc3N21 (stereo not drawn) [Example 94]
36 | < 0.25 | 1 to 10 | 1 to 10 | CCN1CC(C)(N(C)c2cc3c(cc2-c2ccccc2)OCC2=NNC(=O)C(C)N23)C1 (stereo not drawn) [Example 93]
37 | < 0.25 | 0.25 to 1 | < 0.25 | C[C@@H]1C(=O)NN=C2COc3cc(-c4ccccc4F)c(N4CCN[C@@H](C)C4)cc3N21 [Example 225]
38 | < 0.25 | 0.25 to 1 | < 0.25 | Cc1cccc(-c2cc3c(cc2N(C)C2(C)CN(C)C2)N2C(=NNC(=O)C2C)CO3)c1 (stereo not drawn) [Example 172]
39 | < 0.25 | 1 to 10 | 0.25 to 1 | C[C@@H]1C(=O)NN=C2COc3cc4ccn([C@]5(C)CCNC5)c4cc3N21 [Example 164, (R)-1-Methyl-10-((R)-3-methyl-pyrrolidin-3-yl)-3,5-dihydro-10H-6-oxa-3,4,10,11b-tetraaza-cyclopenta[b]phenanthren-2-one]
40 | 0.25 to 1 | 1 to 10 | 1 to 10 | CC1C(=O)NN=C2COc3cc(-c4ccccc4)c(NC4(C)CNC4)cc3N21 (stereo not drawn) [Example 79, 4-Methyl-6-(3-methyl-azetidin-3-ylamino)-7-phenyl-2,10-dihydro-9-oxa-1,2,4a-triaza-phenanthren-3-one trifluoroacetic acid]
41 | < 0.25 | 1 to 10 | < 0.25 | CC1C(=O)NN=C2COc3cc(-c4ccccc4F)c(NC4CNC4)cc3N21 (racemic) [Example 42]
42 | < 0.25 | 1 to 10 | < 0.25 | CC1C(=O)NN=C2COc3cc(-c4cccc(Cl)c4)c(NC4CNC4)cc3N21 (racemic) [Example 17]
43 | < 0.25 | 1 to 10 | 0.25 to 1 | CC1C(=O)NN=C2COc3cc(C(F)(F)F)c(C4CCNCC4)cc3N21 (stereo not drawn) [Example 120, 1-Methyl-9-(piperidin-4-yl)-8-(trifluoromethyl)-3,5-dihydrobenzo[5,6][1,4]oxazino[3,4-c][1,2,4]triazin-2(1H)-one trifluoroacetic acid]
